Results as given in patent US20080274544A1, “Promotor for Introducing Extracellular Substance into Mammalian Ovum and Introduction Method” (priority 2005, published 2008).
“Also recorded” adds a separate entry of the source.

Experiments:
[1] = tested on: zona pellucida-free mouse unfertilized oocytes; experiment: In vitro fertilization of zona pellucida-free oocytes, sperm-oocyte fusion; format: cell-based; conditions: for number of sperm which fused with the oocytes: zona pellucida-free oocytes, 1 hr after insemination, oocytes cultured 1 hr in 20 μM vinblastine or 10 μM paclitaxel, compared with untreated control (FIG. 1)
Description: (§1) • (1) Mice of eight week-old or older were purchased and made adapted to grow environment for 1 week before use. PMS (Serotoropin exclusive to animal, manufactured by ASUKA Pharmaceutical) was injected in an amount of 0.1 ml into the abdominal cavity of the mouse at 8:00 pm. • (2) 48 hr later, HCG (Gonadotropin exclusive to animal, manufactured by ASUKA Pharmaceutical) was injected in an amount of 0.1 ml into the abdominal cavity. • (3) Mice were euthanized the next day (14 to 16 hr after HCG injection), and the ampulla of oviduct was removed. An oocyte surrounded by cumulus cells was collected and cultured in a (100 μL) drop of TYH medium. • (4) Cumulus cells were removed by hyaluronidase (300 μg/mL) treatment, then the oocyte was cultured in TYH medium for 3 hr. In the case of conducting removal of zona pellucida, oocyte zona pellucida was removed by an acid Tyrode's solution treatment followed by culturing the oocyte in TYH medium for 3 hr. 2. Treatment with a Tubulin-Polymerization Inhibitor
(§2) The collected unfertilized oocyte of the mice was treated by using vinblastine (VB) as a tubulin-polymerization inhibitor. As controls, an oocyte treated with paclitaxel (Pac; Brand Name: taxol), tubulin-polymerization promoter, and an untreated oocyte (control) were used. Vinblastine (VB) treatment was conducted by culturing the oocyte in 20 μM of vinblastine solution (TYH medium) for 1 hr, while paclitaxel (Pac) treatment was conducted by culturing the oocyte in 10 μM of paclitaxelel (Pac) solution (TYH medium) similarly for 1 hr.
The mouse unfertilized oocyte was treated with vinblastine (VB), a tubulin-polymerization inhibitor, and in vitro fertilization was conducted with mouse sperm. […]
(In the case where zona pellucida-free oocytes were use): To quantify sperm-oocyte fusion efficiency, zona pellucida-free mouse unfertilized oocytes were treated with vinblastine (VB), a tubulin-polymerization inhibitor, or paclitaxel (Pac), tubulin-polymerization promoter, or left untreated (control). […]

[2] = tested on: mouse unfertilized oocytes with zona pellucida; experiment: In vitro fertilization of oocytes with zona pellucida, fertilization efficiency; format: cell-based
Description: as §1, §2
The mouse unfertilized oocyte was treated with vinblastine (VB), a tubulin-polymerization inhibitor, and in vitro fertilization was conducted with mouse sperm. As controls, an unfertilized oocyte treated with paclitaxel (Pac; Brand Name: taxol), tubulin-polymerization promoter, and an untreated oocyte (control) were used. […]

SMILES	sperm-oocyte membrane fusion ([1]; mouse unfertilized oocyte treated with tubulin-polymerization promoter)	number of sperm which fused with the oocytes [1]	increase of fertilization efficiency compared to untreated oocytes ([2]; 2-cell-stage oocytes, oocytes cultured 1 hr in 20 μM vinblastine (FIG. 2)) [%]	fusion efficiency of oocytes treated with anti-mouse CD9 antibody having a fusion-inhibitory effect ([2]; vinblastine treatment together with anti-mouse CD9 antibody)	fusion of immature oocytes with sperm ([2]; vinblastine-treated immature oocytes)
CC(=O)O[C@H]1C(=O)[C@@]2(C)[C@H]([C@H](OC(=O)c3ccccc3)[C@]3(O)C[C@H](OC(=O)[C@H](O)[C@@H](NC(=O)c4ccccc4)c4ccccc4)C(C)=C1C3(C)C)[C@]1(OC(C)=O)CO[C@@H]1C[C@@H]2O [paclitaxel]	inhibited	not fused			
CC[C@]1(O)C[C@@H]2CN(CCc3c([nH]c4ccccc34)[C@@](C(=O)OC)(c3cc4c(cc3OC)N(C)[C@H]3[C@@](O)(C(=O)OC)[C@H](OC(C)=O)[C@]5(CC)C=CCN6CC[C@]43[C@@H]65)C2)C1 [vinblastine]		largest number	20	increased	could be fused with sperm; also recorded: could fuse with sperm
